Measured values taken from PMC4784888, “Activity Based High-Throughput Screening for Novel O-GlcNAc Transferase Substrates Using a Dynamic Peptide Microarray” (PLoS ONE, 2016).
Values belong to the substance of their own block, whether it stands above or below them. Where no end group is shown, it is not given here.

What was measured:
Assay type in all cases: biochemical, human
purified m-OGT [1] = experiment: Ala scan of RBL-2_410–422 on peptide microarray; settings: 0.2 μg/μL purified m-OGT, 1 mM UDP-GlcNAc; for OGT activity against RBL-2_410–422 Ala mutants (in words): extra CG at NH2 terminal
Experimental: (§1) One step OGT purification was performed using His60 Ni Gravity Flow Columns (Clontech) according to the manufacturer’s instructions. Briefly, the nickel column was equilibrated with a buffer containing 50 mM sodium phosphate, 300 sodium chloride, 20 mM imidazole, and pH 7.4, followed by incubation with cell lysate containing His tag OGT for 1h at 4°C. After washing several times using buffer containing 50 mM sodium phosphate, 300 sodium chloride, 40 mM imidazole, and pH 7.4, the recombinant OGT was eluted using elution buffer containing 50 mM sodium phosphate, 300 mM sodium chloride, 300 mM imidazole, and pH 7.4. The eluted fraction was concentrated through a 100,000 Da molecular weight cut off Amicon unit by centrifugation 10 min at 5000 RPM at 4°C.
(§2) Peptide O-GlcNAcylation was assessed using PamChip 4 microarray chips with a PamStation 12 instrument (Pamgene international, The Netherlands). The OGT enzyme reaction was prepared essentially as described[26] with minor modifications. Briefly, before addition of the enzyme reaction, the microarray was blocked with blocking buffer (1% BSA in TBS). After 30 cycles (2 cycles/min) blocking, the blocking buffer was aspirated and the microarray was incubated with 40 μL of the enzyme reaction containing OGT (lysate or purified), OGT reaction buffer (50 mM Tris—HCl, pH 7.5;1 mM DTT;12.5 mM MgCl2), a 1:1 pre-incubated mixture of anti-O-GlcNAc and FITC conjugated secondary antibody, and the sugar donor UDP-GlcNAc or water as a control for 480 cycles (2 cycles/min) at 30°C. The microarray was run in parallel by pumping the reaction up and down through the porous membrane at every cycle and a tiff image was obtained at every 20 cycles by a CCD camera inside the PamStation. O-GlcNAcylation of each peptide was detected by a fluorescent signal which was produced by an FITC conjugated antibody bound to the O-GlcNAc moiety on the peptide.
(§3) Image analysis was performed using BioNavigator 6 software (Pamgene international, The Netherlands). Briefly, each image was quantified by automated array grid finding and subsequent quantification of signal and local background for each individual spot. In this work, the signal median-minus-background value was used as the quantitative parameter for the O-GlcNAcylation of the peptide.
Synthesis of all the peptides was achieved by following a standard Fmoc SPPS strategy on a Symphony Multiple Peptide Synthesizer and starting from rink amide resin. The following Fmoc amino acids were used: Fmoc-Cys(Trt)-OH, Fmoc-Gly-OH, Fmoc-Lys(Boc)-OH, Fmoc-Glu(Otbu)-OH, Fmoc-Asn(Trt)-OH, Fmoc-Ser(tBu)-OH, Fmoc-Thr(tBu)-OH, Fmoc-Ala-OH, Fmoc-Pro-OH, Fmoc-Val-OH. Deprotection was performed using 20% piperidine in DMF, and coupling was performed using 1:0.9:2 amino acid/ HBTU/DIPEA in DMF. After completion of the synthesis, the protected peptidyl resins were incubated with a 10 mL mixture of TFA (trifluoroacetic acid): H2O: triisopropylsilane (TIPS): 1, 2-ethanedithiol (EDT) (9:0.5:0.25:0.25, v/v/v/v) and allowed to stir for 2 h at room temperature under a nitrogen atmosphere. The cleaving mixture was filtered and the resin was washed with TFA (2 mL) and DCM (4 mL). The residue was precipitated by treatment of precooled diethyl ether and centrifugation. Two times washing and centrifugation yielded the crude products in a pellet. The precipitated peptides were dissolved in water, frozen, and lyophilized. All products were stored at -20°C. Crude peptide analysis was carried out by LC-MS.
To further confirm this and investigate the role of this and surrounding amino acid residues in our activity based assay, we resynthesized the RBL-2 peptide present on the microarray and performed an Ala scan, thus replacing of all the possible O-GlcNAc sites (Ser and Thr) in RBL-2_420–422 (Fig 4A). To immobilize the peptides on the chip, all the peptides were prepared with an extra CG at the NH2 terminal to allow immobilization on the maleimide-based chip surface. […]

m-OGT = experiment: UDP-Glo assay of RBL-2_410–422 peptides
Experimental: as §1
In this work OGT activity was also determined using UDP-Glo™ Glycosyltransferase Assay according to the manufacturer’s instructions. This assay evaluates O-GlcNAcylation through monitoring UDP formation in glycosyltransferase reactions by luminescence. Briefly, OGT reactions were carried out in 100 μL final volume containing 0.5 mM UDP-GlcNAc, 6 μg purified/60 μg lysate enzyme, 100 μM peptide in OGT reaction buffer (50 mM Tris—HCl, pH 7.5;1 mM DTT;12.5 mM MgCl2). Reactions were incubated at room temperature for 2h. At the end of that period, each reaction was transferred in triplicate into a 96-well white microplate and was mixed with a 1:1 ratio of UDP-Glo Detection Reagent. After incubation at room temperature for 1h, the luminescence was recorded with a Mithras LB940 Multimode microplate reader using Mikro Win 2000 software (Berthold Technology, Germany).
To further confirm this and investigate the role of this and surrounding amino acid residues in our activity based assay, we resynthesized the RBL-2 peptide present on the microarray and performed an Ala scan, thus replacing of all the possible O-GlcNAc sites (Ser and Thr) in RBL-2_420–422 (Fig 4A). To immobilize the peptides on the chip, all the peptides were prepared with an extra CG at the NH2 terminal to allow immobilization on the maleimide-based chip surface. Cys 415 was replaced by an Ala to avoid cyclisation by disulfide bond formation or dual modes of immobilization (S2 Fig). […] The mutants T421A decreased the O-GlcNAcylation of RBL-2_420–422 peptide by 40% compared to the control (wild type with C415A). […] In addition, OGT activity against these peptides was further validated using the UDP-Glo assay, which measures the amount of UDP produced when GlcNAc is transferred from UDP-GlcNAc to the sugar accepting peptide. […] This might be because the UDP assay is more sensitive than the antibody-based detection.
Fig 4 S420A is a possible O-GlcNAc site in the RBL-2 protein. A, peptide mutant used for an Ala scan. For immobilization purposes, peptides were prepared with an extra CG at the N-terminus and Cys 415 was replaced by Ala. B, OGT activity against RBL-2_410–422 peptide mutants was determined using peptide microarray analysis with 0.2 μg/μL purified m-OGT and 1 mM UDP-GlcNAc. C, UDP-Glo assay was used to measure O-GlcNAcylation of RBL-2_410–422 peptide mutants as well. D, kinetic signals from the same microarray experiment of panel B are shown.
O-GlcNAcylation of wild type RBL-2-410-422 and C415A peptide was determined using both the UDP assay(A) and the microarray assay (B) with 1 mM UDP-GlcNAc and 0.2 μg/μL purified m-OGT. […] (TIF) Click here for additional data file.

purified m-OGT [2] = experiment: Inhibition of OGT activity by RBL-2_S420A 410–422 peptide on nuclear receptor interaction peptide microarray; settings: purified m-OGT (0.2 μg/μL), UDP-GlcNAc 0.5 mM; for inhibition of OGT activity (in words): peptide 0.5 mM
Experimental: as §1, §2, §3
We then used the identified substrate sequence as a starting point towards the discovery of novel selective OGT inhibitors. […] To test it, we determined its inhibitory effect on the O-GlcNAcylation of two OGT substrates identified in our work and a known OGT inhibitor was used as a positive control.
Fig 5 The RBL-2_S420A 410–422 peptide inhibited OGT activity. The inhibitory effect of RBL-2_S420A 410–422 peptide on OGT activity was determined on the nuclear receptor interaction peptide microarray. […]

[3] = microarray, control wild type with C415A
[4] = UDP-Glo, luminescence, 0.5 mM UDP-GlcNAc, 6 μg purified enzyme, 100 μM peptide, 50 mM Tris-HCl pH 7.5, room temperature 2 h, triplicate

Substance: T421A: Ala scan mutant of RBL-2_410–422 (CGKENSPAVTPVSAA-NH2)
decrease of O-GlcNAcylation compared to control (purified m-OGT [1]; [3]): 40% | O-GlcNAcylation activity in solution (in words) (m-OGT; [4]): consistent with the microarray results

Substance: S413A: Ala scan mutant of RBL-2_410–422
OGT activity against RBL-2_410–422 Ala mutants (in words) (purified m-OGT [1]; [3]): did not show any effect | O-GlcNAcylation activity in solution (in words) (m-OGT; [4]): consistent with the microarray results

Substance: S420A: Ala scan mutant of RBL-2_410–422 (CGKENSPAVTPVATA-NH2)
OGT activity against RBL-2_410–422 Ala mutants (in words) (purified m-OGT [1]; [3]): complete loss of OGT activity | O-GlcNAcylation activity in solution (in words) (m-OGT; [4]): consistent with the microarray results

Substance: T417A: Ala scan mutant of RBL-2_410–422 (CGKENSPAVAPVSTA-NH2)
OGT activity against RBL-2_410–422 Ala mutants (in words) (purified m-OGT [1]; [3]): complete loss of OGT activity | remaining O-GlcNAcylation (m-OGT; [4]): 20%

Substance: C415A: RBL-2_410–422 peptide with Cys 415 replaced by an Ala (CGKENSPAVTPVSTA-NH2; UniProt Q08999 410-422, looked up, variant C415A)
C415A effect on O-GlcNAcylation, overall statement (purified m-OGT [1]; UDP assay and microarray): modest effect on O-GlcNAcylation | OGT activity of C415A compared with wild type, UDP assay (m-OGT; UDP assay, 1 mM UDP-GlcNAc, 0.2 μg/μL purified m-OGT): modest increase in OGT activity

inhibition of O-GlcNAcylation of NCOA6 (purified m-OGT [2]; 500 μM S420A peptide, NCOA6_1479–1501 substrate): 50% | inhibition of O-GlcNAcylation of WIPI 1 (purified m-OGT [2]; 500 μM S420A peptide, WIPI 1 substrate): 50% | inhibition of OGT activity (in words) (purified m-OGT [2]; listed as RBL-2_S420A 420–422): significant inhibition of OGT activity
Substance: RBL-2_S420A 410–422: S420A mutation peptide of RBL-2 410–422 tested as OGT inhibitor (CGKENSPAVTPVATA-NH2)
inhibition of OGT activity (in words) (purified m-OGT [2]): still binds to the OGT active site and therefore inhibited OGT activity
